The values below come from patent US10201565B2, “Gas conditioning” (EndoSAT NV, priority 2010, dated 2019).

Values after ≈ are worked out from the molar mass of the structure shown. Values joined by “and” are separate entries in the source; they are usually repeats but may differ in a detail not shown here. Identical values can stand only once.

For series [1] the following is noted: cited from earlier work; for solubilities: unit inferred.
A further series concerns human patients. As to the kind of experiment: clinical trials of laparoscopy with conditioned pneumoperitoneum. The conditions noted are these: first trial, deep endometriosis surgery; trial group also 5 mg dexamethasone and hyalobarrier gel, humidification, cooling 30-32° C. In kind it is in vivo. The procedure: In a further set of trials, human patients were treated operatively by laparoscopy using a pneumoperitoneum with 86% CO2, 10% of N2O and 4% of O2 in combination with full humidification and with a temperature maintained at 31° C. to 32° C. when entering the patient (conditioned group). Furthermore the peritoneal cavity was cooled to 30-32° C. using sprinkling of 2 ml/min of saline at room temperature and rinsing was performed using slightly heparinised saline. A comparison was made with a standard treatment, whereby a pneumoperitoneum with 100% CO2 was used (non-conditioned group). Flow rates were between 3 and 10 liter/min. In a first trial, patients were undergoing deep endometriosis surgery. The trial group received in addition 5 mg of dexamethasone and a hyalobarrier gel at the end of the procedure. […] A number of parameters were monitored such as postoperative pain, time to first flatus and time to first stools, and the CO2 resorbtion during pneumoperitoneum. […] In both trials CO2 resorbtion during surgery, postoperative pain assessed by VAS scales and pain killer intake and time to first flatus and time to first stools were monitored.
In both trials post operative pain was evaluated at 3 hours, 12 hours and daily for 4 days after surgery using a VAS scale (Visual Analog Pain Scale) and using the amount of pain killer intake. […]

For series [2], the system named is adhesion formation. The series is described as follows: open abdomen for 60 min with gas flow deep in the pelvis, adhesions. The series is classed as in vivo. The conditions noted are these: gas flow of 1 l/min deep in the pelvis; control group with a lesion only.
For series [3], the system named is adhesion formation. The conditions noted are these: laparoscopic mouse model, background; cited from earlier work.
The test system of series [4] is adhesion formation. The conditions noted are these: 60 min pneumoperitoneum, 15 mmHg, humidified, 37° C.; scored one week later; average of four sites; listed as pure CO2.

As to `[N-]=[N+]=O` [N2O, nitrous oxide], in series [1], the solubility in water was 1500 µg/mL (≈ 34.1 mM) and the solubilities is 1.5 g/L.
Take `O=C=O` [CO2, carbon dioxide]: in the series with human patients, the “adhesion formation checked by repeat laparoscopy” value is listed as “severe adhesions”. Further, the “adhesions after 60 min open abdomen” value in the series with adhesion formation [2] is “decrease of these adhesions”. Moreover, the adhesion formation result with adhesion formation [3] is reported as “increase adhesions five fold”. Also, in the series with adhesion formation [4], the “quantitative adhesion score (proportion of lesion covered by adhesions)” value is 70±10% and 74±9% and 77±9%; the “total adhesion score (sum of extent, type, tenacity)” value was 30±4 and 31±4 and 32±4. In series [1], the solubility in water was 1450 µg/mL (≈ 32.9 mM) and the solubilities is 1.45 g/L.
Turning to `O=O` [Oxygen, oxygen], in series [1], the solubility in water is 39.1 µg/mL (≈ 1.22 mM) and the solubilities is 0.0232 g/L.
